Experimental data published in patent US10988477B2 (Merck Patent GmbH, priority 2018, dated 2021).

Assays:
[1] = target: GCN2 kinase (Homo sapiens, UniProt Q9P2K8); experiment: GCN2 enzyme inhibition assay (Transcreener ADP2 fluorescence polarization); format: biochemical; conditions: 280 μM ATP
Method in brief: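 Inhibition of 4 nM GCN2 was measured with compound up to 8 μM final, ATP 280 μM and (RS)7 peptide 200 μM over a 1 h, 25 °C reaction. ADP FP readout; IC50 and Ki(app) calculated from percent inhibition.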

[2] = target: intracellular GCN2 (phosphorylation of the GCN2 substrate eIF2α) (Homo sapiens, UniProt Q9P2K8); experiment: GCN2 cellular inhibition assay (AlphaScreen SureFire P-eIF2α Ser51, borrelidin-treated U2OS cells); format: cell-based; conditions: biomarker assay, phosphorylated eIF2α Ser51 in borrelidin-treated U2OS cells
Method in brief: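 U2OS cells, adhered overnight, received compounds in 4-fold serial dilutions from 40 μM final, then 10 μM borrelidin for 1 h at 37 °C. Lysates were read by AlphaScreen for phospho-eIF2α Ser51; percent inhibition was set against borrelidin-only wells.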

[3] = compounds of Formula II, 4 nM GCN2 kinase
[4] = Enzyme activity for compounds of Formula IV, Ki(app), 25° C.

GCN2 kinase, sequence (Q9P2K8 whole entry): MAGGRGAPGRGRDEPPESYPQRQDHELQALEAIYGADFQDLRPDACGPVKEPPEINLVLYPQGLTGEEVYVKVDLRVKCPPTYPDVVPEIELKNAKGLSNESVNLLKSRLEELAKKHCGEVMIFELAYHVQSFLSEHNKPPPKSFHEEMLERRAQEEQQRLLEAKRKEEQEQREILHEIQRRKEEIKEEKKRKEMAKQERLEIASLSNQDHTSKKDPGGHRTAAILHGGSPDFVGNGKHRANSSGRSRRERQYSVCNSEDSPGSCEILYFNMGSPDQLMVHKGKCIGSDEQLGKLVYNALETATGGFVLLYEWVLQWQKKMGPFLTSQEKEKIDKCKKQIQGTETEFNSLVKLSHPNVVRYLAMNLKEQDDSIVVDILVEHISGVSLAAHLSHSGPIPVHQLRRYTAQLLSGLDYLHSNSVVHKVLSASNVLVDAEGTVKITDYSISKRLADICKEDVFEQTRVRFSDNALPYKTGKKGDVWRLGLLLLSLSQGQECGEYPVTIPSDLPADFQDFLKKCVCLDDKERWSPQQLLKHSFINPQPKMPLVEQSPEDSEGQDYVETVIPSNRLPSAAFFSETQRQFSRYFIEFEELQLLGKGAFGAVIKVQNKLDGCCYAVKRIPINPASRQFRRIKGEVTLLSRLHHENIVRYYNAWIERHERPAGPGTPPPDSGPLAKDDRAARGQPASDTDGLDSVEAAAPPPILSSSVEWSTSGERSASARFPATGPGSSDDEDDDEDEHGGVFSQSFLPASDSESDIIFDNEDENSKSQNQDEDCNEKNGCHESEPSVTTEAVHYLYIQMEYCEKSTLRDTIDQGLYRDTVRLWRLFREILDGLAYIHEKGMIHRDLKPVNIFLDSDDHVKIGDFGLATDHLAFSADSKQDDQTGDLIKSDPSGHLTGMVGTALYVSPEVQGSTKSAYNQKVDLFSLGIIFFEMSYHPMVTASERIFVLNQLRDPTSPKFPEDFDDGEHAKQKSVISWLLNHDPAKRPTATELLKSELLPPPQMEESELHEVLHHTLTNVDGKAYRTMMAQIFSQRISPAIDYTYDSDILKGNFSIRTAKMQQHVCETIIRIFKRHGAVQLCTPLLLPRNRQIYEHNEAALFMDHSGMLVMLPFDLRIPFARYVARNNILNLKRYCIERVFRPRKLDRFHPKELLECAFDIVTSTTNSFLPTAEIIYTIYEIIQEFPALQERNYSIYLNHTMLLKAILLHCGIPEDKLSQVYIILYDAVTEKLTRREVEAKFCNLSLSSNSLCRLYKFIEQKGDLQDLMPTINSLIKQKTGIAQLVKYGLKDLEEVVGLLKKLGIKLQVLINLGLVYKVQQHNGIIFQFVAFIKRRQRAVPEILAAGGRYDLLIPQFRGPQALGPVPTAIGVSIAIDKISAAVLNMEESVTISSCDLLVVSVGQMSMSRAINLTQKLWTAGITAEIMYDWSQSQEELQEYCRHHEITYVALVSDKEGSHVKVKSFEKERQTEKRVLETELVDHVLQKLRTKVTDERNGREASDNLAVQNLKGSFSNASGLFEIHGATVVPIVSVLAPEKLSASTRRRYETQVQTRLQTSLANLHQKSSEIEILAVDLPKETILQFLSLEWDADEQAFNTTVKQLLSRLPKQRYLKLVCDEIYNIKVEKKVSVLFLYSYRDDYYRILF
intracellular GCN2 (phosphorylation of the GCN2 substrate eIF2α), sequence (Q9P2K8 whole entry): as above

| Compound | Ki [1, 3] [nM] | IC50 ([2]; compounds of Formula II) [nM] | Ki [1, 4] [nM] | IC50 ([2]; compounds of Formula IV) [nM] |
| --- | --- | --- | --- | --- |
| CS(=N)(=O)CC1CCCN(c2cc(-c3cnc4ccc(C(F)F)nn34)ccn2)C1 (stereo not drawn) [II-138, ((1-(4-(6-(Difluoromethyl)imidazo[1,2-b]pyridazin-3-yl)pyridin-2-yl)piperidin-3-yl)methyl)(imino)(methyl)-λ^6-sulfanone] | 10 to 1000 | 500 to 5000 | – | – |
| CNc1cc(-c2cnc3ccc(C(F)F)nn23)cc(N2CCO[C@H](CNS(C)(=O)=O)C2)n1 [II-69, (S)—N-((4-(4-(6-(Difluoromethyl)imidazo[1,2-b]pyridazin-3-yl)-6-(methylamino)pyridin-2-yl)morpholin-2-yl)methyl)methanesulfonamide] | < 10 | < 500 | – | – |
| CC1CC(F)(F)C(CNS(C)(=O)=O)CN1c1cc(-c2cnc3ccc(C(F)F)nn23)ncn1 (stereo not drawn) [II-433, N-((1-(6-(6-(Difluoromethyl)imidazo[1,2-b]pyridazin-3-yl)pyrimidin-4-yl)-4,4-difluoro-6-methylpiperidin-3-yl)methyl)methanesulfonamide] | < 10 | < 500 | – | – |
| CC1CC(CNS(C)(=O)=O)C(C)N(c2cc(-c3cnc4ccc(C(F)F)nn34)ncn2)C1 (stereo not drawn) [II-511, N-((1-(6-(6-(Difluoromethyl)imidazo[1,2-b]pyridazin-3-yl)pyrimidin-4-yl)-2,5-dimethylpiperidin-3-yl)methyl)methanesulfonamide] | < 10 | < 500 | – | – |
| CCn1cc(-c2ccnc(-c3cnc4cnc(C(F)F)cn34)n2)cn1 [IV-154, 6-(Difluoromethyl)-3-(4-(1-ethyl-1H-pyrazol-4-yl)pyrimidin-2-yl)imidazo[1,2-a]pyrazine] | – | – | 100 to 1000 | > 5000 |
| CC1C(CNS(C)(=O)=O)C(F)(F)C(C)CN1c1cc(-c2cnc3ccc(C(F)F)nn23)ncn1 (stereo not drawn) [II-476, N-((1-(6-(6-(Difluoromethyl)imidazo[1,2-b]pyridazin-3-yl)pyrimidin-4-yl)-4,4-difluoro-2,5-dimethylpiperidin-3-yl)methyl)methanesulfonamide] | 10 to 1000 | 500 to 5000 | – | – |
| O=C1NCC2CCN(c3cc(-c4cnc5ccc(C(F)F)nn45)ncn3)CC12 (stereo not drawn) [II-200, 5-(6-(6-(Difluoromethyl)imidazo[1,2-b]pyridazin-3-yl)pyrimidin-4-yl)octahydro-3H-pyrrolo[3,4-c]pyridin-3-one] | 10 to 1000 | > 5000 | – | – |
| CS(=O)(=O)NCC1CN(c2cc(-c3cnc4ccc(C(F)F)nn34)ccn2)CCC1(F)F (stereo not drawn) [II-153, N-[[1-[4-[6-(Difluoromethyl)imidazo[1,2-b]pyridazin-3-yl]-2-pyridyl]-4,4-difluoro-3-piperidyl]methyl]methanesulfonamide] | < 10 | < 500 | – | – |
| NS(=O)(=O)NCC1CCN(c2cc(-c3cnc4ccc(C(F)F)nn34)ncn2)C1 (stereo not drawn) [II-415, 1-((1-(6-(6-(Difluoromethyl)imidazo[1,2-b]pyridazin-3-yl)pyrimidin-4-yl)pyrrolidin-3-yl)methyl)sulfuric diamide] | 10 to 1000 | > 5000 | – | – |
| CS(=O)(=O)NC[C@H]1CCCN(c2cc(-c3cnc4ccc(C(F)F)nn34)ncn2)C1 [II-300, (S)—N-((1-(6-(6-(Difluoromethyl)imidazo[1,2-b]pyridazin-3-yl)pyrimidin-4-yl)piperidin-3-yl)methyl)methanesulfonamide] | < 10 | < 500 | – | – |
| CC1CCC(CNS(C)(=O)=O)CN1c1cc(-c2cnc3ccc(C(F)F)nn23)ncc1F (stereo not drawn) [II-271, N-[[1-[2-[6-(Difluoromethyl)imidazo[1,2-b]pyridazin-3-yl]-5-fluoro-4-pyridyl]-6-methyl-3-piperidyl]methyl]methanesulfonamide] | 10 to 1000 | 500 to 5000 | – | – |
| CS(=O)(=O)NCC1CCCN(c2cc(-c3cnc4ccc(C(F)F)nn34)c(F)cn2)C1 (stereo not drawn) [II-729, N-((1-(4-(6-(Difluoromethyl)imidazo[1,2-b]pyridazin-3-yl)-5-fluoropyridin-2-yl)piperidin-3-yl)methyl)methanesulfonamide] | < 10 | 500 to 5000 | – | – |
| CC1C(CNS(N)(=O)=O)CCCN1c1cc(-c2cnc3ccc(C(F)F)nn23)ncn1 (stereo not drawn) [II-387, 6-(Difluoromethyl)-3-[6-[2-methyl-3-[(sulfamoylamino)methyl]-1-piperidyl]pyrimidin-4-yl]imidazo[1,2-b]pyridazine] | 10 to 1000 | 500 to 5000 | – | – |
| CS(=O)(=O)NCC12CC1CN(c1cc(-c3cnc4ccc(C(F)F)nn34)ncn1)C2 (stereo not drawn) [II-447, N-((3-(6-(6-(Difluoromethyl)imidazo[1,2-b]pyridazin-3-yl)pyrimidin-4-yl)-3-azabicyclo[3.1.0]hexan-1-yl)methyl)methanesulfonamide] | 10 to 1000 | 500 to 5000 | – | – |
| Cc1[nH]ncc1C1CCCN(c2ccnc(-c3cnc4cnc(C(F)(F)F)cn34)n2)C1 (stereo not drawn) [IV-452, 3-(4-(3-(5-Methyl-1H-pyrazol-4-yl)piperidin-1-yl)pyrimidin-2-yl)-6-(trifluoromethyl)imidazo[1,2-a]pyrazine] | – | – | < 10 | 500 to 5000 |
| CS(=O)(=O)NCC1(F)CCCN(c2cc(-c3cnc4ccc(C(F)F)nn34)ccn2)C1 (stereo not drawn) [II-139, N-((1-(4-(6-(Difluoromethyl)imidazo[1,2-b]pyridazin-3-yl)pyridin-2-yl)-3-fluoropiperidin-3-yl)methyl)methanesulfonamide] | 10 to 1000 | 500 to 5000 | – | – |
| OCc1ccc(-c2ccnc(-c3cnc4cnc(C(F)F)cn34)n2)s1 [IV-175, (5-(2-(6-(Difluoromethyl)imidazo[1,2-a]pyrazin-3-yl)pyrimidin-4-yl)thiophen-2-yl)methanol] | – | – | 100 to 1000 | > 5000 |
| CS(=O)(=O)C1CCCN(c2cc(-c3cnc4ccc(C(F)(F)F)nn34)ccn2)C1 (stereo not drawn) [II-228, 3-(2-(3-(Methylsulfonyl)piperidin-1-yl)pyridin-4-yl)-6-(trifluoromethyl)imidazo[1,2-b]pyridazine] | 10 to 1000 | > 5000 | – | – |
| Cc1[nH]ncc1C1CN(c2ccnc(-c3cnc4cnc(C(F)F)cn34)n2)CC(C)N1 (single isomer, unassigned) [IV-462, 6-(Difluoromethyl)-3-(4-(3-methyl-5-(5-methyl-1H-pyrazol-4-yl)piperazin-1-yl)pyrimidin-2-yl)imidazo[1,2-a]pyrazine] | – | – | 100 to 1000 | > 5000 |
| NS(=O)(=O)CCC1CCCN(c2cc(-c3cnc4ccc(C(F)F)nn34)ncn2)C1 (stereo not drawn) [II-317, 2-(1-(6-(6-(Difluoromethyl)imidazo[12-b]pyridazin-3-yl)pyrimidin-4-yl)piperidin-3-yl)ethane-1-sulfonamide] | 10 to 1000 | 500 to 5000 | – | – |
| FC(F)c1ccc2ncc(-c3cc(N4CCC(Cc5ccn[nH]5)CC4)ncn3)n2n1 [II-217, 3-(6-(4-((1H-Pyrazol-5-yl)methyl)piperidin-1-yl)pyrimidin-4-yl)-6-(difluoromethyl)imidazo[1,2-b]pyridazine] | 10 to 1000 | 500 to 5000 | – | – |
| NCC1CCN(c2cc(-c3cnc4ccc(C(F)F)nn34)ncn2)C1 (stereo not drawn) [II-409, (1-(6-(6-(Difluoromethyl)imidazo[1,2-b]pyridazin-3-yl)pyrimidin-4-yl)pyrrolidin-3-yl)methanamine] | 10 to 1000 | > 5000 | – | – |
| OC[C@H]1CCCCN1c1ccnc(-c2cnc3cnc(C(F)F)cn23)n1 [IV-136, (R)-(1-(2-(6-(Difluoromethyl)imidazo[1,2-a]pyrazin-3-yl)pyrimidin-4-yl)piperidin-2-yl)methanol] | – | – | 100 to 1000 | > 5000 |
| CC(=O)N1CCN(c2ccnc(-c3cnc4cnc(Cl)cn34)n2)CC1 [IV-35, 1-(4-(2-(6-Chloroimidazo[1,2-a]pyrazin-3-yl)pyrimidin-4-yl)piperazin-1-yl)ethan-1-one] | – | – | 100 to 1000 | > 5000 |
| CS(=O)(=O)NC[C@@H]1CN(c2cc(-c3cnc4ccc(C(F)F)nn34)ncn2)CC(=O)N1 [II-25, (S)—N-((4-(6-(6-(Difluoromethyl)imidazo[1,2-b]pyridazin-3-yl)pyrimidin-4-yl)-6-oxopiperazin-2-yl)methyl)methanesulfonamide] | 10 to 1000 | > 5000 | – | – |
| CS(=O)(=O)NC[C@H]1CCCN(c2cc(-c3cnc4ccc(C(F)(F)F)nn34)ncn2)C1 [II-291, (S)—N-((1-(6-(6-(Trifluoromethyl)imidazo[1,2-b]pyridazin-3-yl)pyrimidin-4-yl)piperidin-3-yl)methyl)methanesulfonamide] | < 10 | < 500 | – | – |
| CNS(=O)(=O)N[C@H]1CCCN(c2cc(-c3cnc4ccc(C(F)F)nn34)ncn2)C1 [II-422, (S)-1-(1-(6-(6-(Difluoromethyl)imidazo[1,2-b]pyridazin-3-yl)pyrimidin-4-yl)piperidin-3-yl)-3-methylsulfuric diamide] | 10 to 1000 | < 500 | – | – |
| CS(=O)(=O)NCC1CCCN(c2cc(-c3cnc4ccc(C(F)F)nn34)ncn2)C1 (stereo not drawn) [II-59, N-((1-(6-(6-(Difluoromethyl)imidazo[1,2-b]pyridazin-3-yl)pyrimidin-4-yl)piperidin-3-yl)methyl)methanesulfonamide] | < 10 | < 500 | – | – |
| NC(=O)C1COCCN(c2ccnc(-c3cnc4cnc(C(F)F)cn34)n2)C1 (stereo not drawn) [IV-117, 4-(2-(6-(Difluoromethyl)imidazo[1,2-a]pyrazin-3-yl)pyrimidin-4-yl)-1,4-oxazepane-6-carboxamide] | – | – | 100 to 1000 | > 5000 |
| OC1CCN(c2ccnc(-c3cnc4cnc(C(F)(F)F)cn34)n2)CC1c1cn[nH]c1 (single isomer, unassigned) [IV-624, 3-(1H-Pyrazol-4-yl)-1-(2-(6-(trifluoromethyl)imidazo[1,2-a]pyrazin-3-yl)pyrimidin-4-yl)piperidin-4-ol] | – | – | 10 to 100 | 500 to 5000 |
